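48-hour exposure; five concentrations; linearly interpolated endpoints. GI50: concentration for 50% inhibition of growth.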 The source made the active and inactive calls. No stated cut-off is given here; in the data, active = GI50 up to about 1.1 µM and inactive = higher. Where a SMILES comes first, the peptide text is derived from it. The star is where a group is joined. Boc = CC(C)(C)OC(=O)*; OBn = c1ccc(CO*)cc1
Columns and labels:
Experiment in all cases: NCI-60 cell line screen, 48 h
HCT-116 = test system: HCT-116
NCI-H23 = test system: NCI-H23
OVCAR-8 = test system: OVCAR-8
M14 = test system: M14
SN12C = test system: SN12C
UO-31 = test system: UO-31
HOP-62 = test system: HOP-62
CCRF-CEM = test system: CCRF-CEM
MDA-MB-435 = test system: MDA-MB-435
SW-620 = test system: SW-620
Hs-578T = test system: Hs-578T
K562 = test system: K562
BT-549 = test system: BT-549
SNB-75 = test system: SNB-75
SK-MEL-5 = test system: SK-MEL-5
A498 = test system: A498
NCI-H522 = test system: NCI-H522
PC-3 = test system: PC-3
SK-MEL-2 = test system: SK-MEL-2
NCI-H460 = test system: NCI-H460

Row | Compound | GI50 (HCT-116) | GI50 (NCI-H23) | GI50 (OVCAR-8) | GI50 (M14) | GI50 (SN12C) | GI50 (UO-31) | GI50 (HOP-62) | GI50 (CCRF-CEM) | GI50 (MDA-MB-435) | GI50 (SW-620) | GI50 (Hs-578T) | GI50 (K562) | GI50 (BT-549) | GI50 (SNB-75) | GI50 (SK-MEL-5) | GI50 (A498) | GI50 (NCI-H522) | GI50 (PC-3) | GI50 (SK-MEL-2) | GI50 (NCI-H460)
1 | Cc1cnoc1NS(=O)(=O)c1ccc(Nc2nnc(/C=C/c3c(O)ccc4ccccc34)c(=O)n2N)cc1 | 22 µM (inactive) | 7.73 µM (inactive) | 16.4 µM (inactive) | 25.9 µM (inactive) | 29.4 µM (inactive) | 28.7 µM (inactive) | 46 µM (inactive) | 10.9 µM (inactive) | 26.7 µM (inactive) | 32.7 µM (inactive) | 29.2 µM (inactive) | 24.2 µM (inactive) | 18.7 µM (inactive) | 20.8 µM (inactive) | – | – | – | – | – | –
2 | CC(C(N)=O)N(C)C(=O)c1cnc2ccccc2c1 (stereo not drawn) | > 100 µM (inactive) | > 10 µM (inactive) | > 100 µM (inactive) | > 100 µM (inactive) | > 100 µM (inactive) | > 100 µM (inactive) | – | > 100 µM (inactive) | > 100 µM (inactive) | > 100 µM (inactive) | – | 17 µM (inactive) | > 100 µM (inactive) | > 100 µM (inactive) | > 100 µM (inactive) | > 100 µM (inactive) | > 100 µM (inactive) | > 100 µM (inactive) | > 100 µM (inactive) | > 100 µM (inactive)
3 | CC(C)CC(NC(=O)OC(C)(C)C)C(=O)N1CCCC1C(=O)OCc1ccccc1 (stereo not drawn) (Boc-Leu-Pro-OBn; configuration not given here) | > 100 µM (inactive) | > 100 µM (inactive) | > 100 µM (inactive) | 99.3 µM (inactive) | > 100 µM (inactive) | 75 µM (inactive) | – | – | > 100 µM (inactive) | > 100 µM (inactive) | – | 35.2 µM (inactive) | > 100 µM (inactive) | > 100 µM (inactive) | > 100 µM (inactive) | > 100 µM (inactive) | > 100 µM (inactive) | > 100 µM (inactive) | > 100 µM (inactive) | –
4 | OC1c2[nH]c3ccccc3c2CCN2CCCCC12 (stereo not drawn) | > 100 µM (inactive) | > 100 µM (inactive) | > 100 µM (inactive) | > 100 µM (inactive) | > 100 µM (inactive) | – | > 100 µM (inactive) | > 100 µM (inactive) | > 100 µM (inactive) | > 100 µM (inactive) | – | > 100 µM (inactive) | > 100 µM (inactive) | 59.4 µM (inactive) | – | > 100 µM (inactive) | > 100 µM (inactive) | > 100 µM (inactive) | > 100 µM (inactive) | > 100 µM (inactive)
5 | OCCN(CCO)c1ccc2c(C(F)(F)F)cc(C(F)(F)F)nc2n1 | > 100 µM (inactive) | > 100 µM (inactive) | > 77.6 µM (inactive) | > 100 µM (inactive) | > 100 µM (inactive) | > 100 µM (inactive) | > 100 µM (inactive) | > 100 µM (inactive) | > 100 µM (inactive) | > 100 µM (inactive) | > 100 µM (inactive) | > 100 µM (inactive) | – | > 100 µM (inactive) | 95.7 µM (inactive) | 48.5 µM (inactive) | > 100 µM (inactive) | > 100 µM (inactive) | > 100 µM (inactive) | > 100 µM (inactive)
6 | Clc1ncc(Cl)c(Cl)n1 | 2.82 µM (inactive) | 15.5 µM (inactive) | 3.86 µM (inactive) | 3.24 µM (inactive) | 1.73 µM (inactive) | 3.17 µM (inactive) | 16.5 µM (inactive) | 2.47 µM (inactive) | 2.65 µM (inactive) | 1.38 µM (inactive) | 2.72 µM (inactive) | 0.832 µM (active) | – | 2.84 µM (inactive) | 5.05 µM (inactive) | 19.1 µM (inactive) | 1.48 µM (inactive) | 2.45 µM (inactive) | 2.12 µM (inactive) | 5.27 µM (inactive)
7 | CC(O)CCCOC(c1ccccc1)(c1ccccc1)c1ccccc1 (stereo not drawn) | 13.8 µM (inactive) | 14.1 µM (inactive) | 14.7 µM (inactive) | 15.5 µM (inactive) | 16.7 µM (inactive) | 13.7 µM (inactive) | 17.3 µM (inactive) | 23.3 µM (inactive) | 16.5 µM (inactive) | 16.6 µM (inactive) | 18.7 µM (inactive) | 22.9 µM (inactive) | – | 12.6 µM (inactive) | 11.8 µM (inactive) | 20.1 µM (inactive) | 13.7 µM (inactive) | 11.5 µM (inactive) | 15.1 µM (inactive) | 16.1 µM (inactive)
8 | CC1(C)C2CCC(N)(C2)C1O (stereo not drawn) | > 100 µM (inactive) | > 100 µM (inactive) | > 100 µM (inactive) | > 100 µM (inactive) | > 100 µM (inactive) | > 100 µM (inactive) | > 100 µM (inactive) | > 100 µM (inactive) | > 100 µM (inactive) | > 100 µM (inactive) | – | > 100 µM (inactive) | > 100 µM (inactive) | > 100 µM (inactive) | > 100 µM (inactive) | > 100 µM (inactive) | – | > 100 µM (inactive) | > 100 µM (inactive) | > 100 µM (inactive)
9 | CC(C)CC(=O)NC(C(=O)NC(C(=O)NC(CC(C)C)C(O)CC(=O)NC(C)C(=O)NC(CC(C)C)C(O)CC(=O)O)C(C)C)C(C)C (stereo not drawn) | > 100 µM (inactive) | > 100 µM (inactive) | > 100 µM (inactive) | > 100 µM (inactive) | > 100 µM (inactive) | > 100 µM (inactive) | > 100 µM (inactive) | > 100 µM (inactive) | > 100 µM (inactive) | > 100 µM (inactive) | – | > 100 µM (inactive) | 22.1 µM (inactive) | > 100 µM (inactive) | > 100 µM (inactive) | > 100 µM (inactive) | > 100 µM (inactive) | > 100 µM (inactive) | > 100 µM (inactive) | > 100 µM (inactive)
10 | c1c[nH]c(-c2cccc3nsnc23)c1 | 59.7 µM (inactive) | > 100 µM (inactive) | 78 µM (inactive) | > 100 µM (inactive) | 94.2 µM (inactive) | 44.6 µM (inactive) | 30.7 µM (inactive) | 93.1 µM (inactive) | > 100 µM (inactive) | > 100 µM (inactive) | – | > 100 µM (inactive) | > 100 µM (inactive) | 49.4 µM (inactive) | > 100 µM (inactive) | 61.7 µM (inactive) | > 100 µM (inactive) | 95.9 µM (inactive) | > 100 µM (inactive) | 65.2 µM (inactive)
11 | N#C/C(=C/NC(N)=S)C(N)=O | > 100 µM (inactive) | > 100 µM (inactive) | > 100 µM (inactive) | > 100 µM (inactive) | > 100 µM (inactive) | > 100 µM (inactive) | > 100 µM (inactive) | – | > 100 µM (inactive) | > 100 µM (inactive) | – | – | > 100 µM (inactive) | > 100 µM (inactive) | > 100 µM (inactive) | > 100 µM (inactive) | – | – | > 100 µM (inactive) | > 100 µM (inactive)

Reference: ChEMBL document CHEMBL1201862, “PubChem BioAssay data set” (2004)
